Test results: ChEMBL document CHEMBL3885881, “DrugMatrix”

Species: Rattus norvegicus
Test: DrugMatrix - Regimen: Daily Repeat
Format: toxicity, organism-based, Sprague-Dawley
Parameters: regimen Daily Repeat, gender Male, age 6-8 weeks
Conditions: in vivo, iv, vehicle 100 % SALINE; for ABSOLUTE BASOPHIL / ABSOLUTE EOSINOPHIL / ABSOLUTE LYMPHOCYTE / ABSOLUTE MONOCYTE / ABSOLUTE SEGMENTED NEUTROPHIL / BASOPHIL / EOSINOPHIL / ERYTHROCYTE COUNT / HEMATOCRIT / HEMOGLOBIN / LEUKOCYTE COUNT / LYMPHOCYTE / MEAN CORPUSCULAR HEMOGLOBIN / MEAN CORPUSCULAR HEMOGLOBIN CONCENTRATION / MEAN CORPUSCULAR VOLUME / MONOCYTE / NEUTROPHIL / NUCLEATED RED BLOOD CELLS: tissue Blood; for ALANINE AMINOTRANSFERASE / ALKALINE PHOSPHATASE / ASPARTATE AMINOTRANSFERASE / BLOOD UREA NITROGEN / CARBON DIOXIDE / CHOLESTEROL / CREATINE PHOSPHOKINASE / CREATININE / GLUCOSE / LACTATE DEHYDROGENASE / LIPASE / SODIUM / TOTAL BILIRUBIN / TOTAL PROTEIN / URIC ACID: tissue Plasma
[1] = 3 mg/kg, 120 h, dose level High, time 5 day
[2] = […], 72 h, dose 0.65 mg/Kg, dose level Low, time 3 day
[3] = […], 120 h, dose 0.65 mg/Kg, dose level Low, time 5 day

COc1cccc2c1C(=O)c1c(O)c3c(c(O)c1C2=O)C[C@@](O)(C(=O)CO)C[C@@H]3O[C@H]1C[C@H](N)[C@H](O)[C@H](C)O1 [DOXORUBICIN]
ABSOLUTE BASOPHIL [1]: 0 CELLS/uL | ABSOLUTE EOSINOPHIL [1]: 17.33 CELLS/uL | ABSOLUTE LYMPHOCYTE [1]: 1693 CELLS/uL | ABSOLUTE MONOCYTE [1]: 0 CELLS/uL | ABSOLUTE SEGMENTED NEUTROPHIL [1]: 589.67 CELLS/uL | BASOPHIL [1]: 0% | EOSINOPHIL [1]: 0.67% | ERYTHROCYTE COUNT [1]: 5.12 x10E6/uL | HEMATOCRIT [1]: 32.6% | HEMOGLOBIN [1]: 12.83 G/DL | LEUKOCYTE COUNT [1]: 2.3 x10E3/uL | LYMPHOCYTE [1]: 74% | MEAN CORPUSCULAR HEMOGLOBIN [1]: 25.07 pg | MEAN CORPUSCULAR HEMOGLOBIN CONCENTRATION [1]: 39.4 G/DL | MEAN CORPUSCULAR VOLUME [1]: 63.73 fL | MONOCYTE [1]: 0% | NEUTROPHIL [1]: 25.33% | NUCLEATED RED BLOOD CELLS [1]: 0 /100WBC | ALANINE AMINOTRANSFERASE [1]: 34 u/L | ALKALINE PHOSPHATASE [1]: 189.67 u/L | ASPARTATE AMINOTRANSFERASE [1]: 86.33 u/L | BLOOD UREA NITROGEN [1]: 12.33 mg/dL | CARBON DIOXIDE [1]: 25.67 mmol/L | CHOLESTEROL [1]: 95.67 mg/dL | CREATINE PHOSPHOKINASE [1]: 299.33 u/L | CREATININE [1]: 0.1 mg/dL | GLUCOSE [1]: 147.67 mg/dL | LACTATE DEHYDROGENASE [1]: 73.33 u/L | LIPASE [1]: 8.33 u/L | SODIUM [1]: 144.9 MEQ/L | TOTAL BILIRUBIN [1]: 0.1 mg/dL | TOTAL PROTEIN [1]: 5.77 G/DL | URIC ACID [1]: 0.4 mg/dL | ABSOLUTE BASOPHIL [2]: 0 CELLS/uL | ABSOLUTE EOSINOPHIL [2]: 0 CELLS/uL | ABSOLUTE LYMPHOCYTE [2]: 6184 CELLS/uL | ABSOLUTE SEGMENTED NEUTROPHIL [2]: 275.33 CELLS/uL | BASOPHIL [2]: 0% | EOSINOPHIL [2]: 0% | ERYTHROCYTE COUNT [2]: 5.13 x10E6/uL | HEMATOCRIT [2]: 33% | HEMOGLOBIN [2]: 13.03 G/DL | LEUKOCYTE COUNT [2]: 6.5 x10E3/uL | LYMPHOCYTE [2]: 94.67% | MEAN CORPUSCULAR HEMOGLOBIN [2]: 25.47 pg | MEAN CORPUSCULAR HEMOGLOBIN CONCENTRATION [2]: 39.5 G/DL | MEAN CORPUSCULAR VOLUME [2]: 64.47 fL | MONOCYTE [2]: 0.67% | NEUTROPHIL [2]: 4.67% | NUCLEATED RED BLOOD CELLS [2]: 0 /100WBC | ALANINE AMINOTRANSFERASE [2]: 48.33 u/L | ALKALINE PHOSPHATASE [2]: 370 u/L | ASPARTATE AMINOTRANSFERASE [2]: 79.33 u/L | BLOOD UREA NITROGEN [2]: 12.33 mg/dL | CARBON DIOXIDE [2]: 30.33 mmol/L | CHOLESTEROL [2]: 68.33 mg/dL | CREATINE PHOSPHOKINASE [2]: 280.67 u/L | CREATININE [2]: 0.29 mg/dL | GLUCOSE [2]: 179 mg/dL | LACTATE DEHYDROGENASE [2]: 81.33 u/L | LIPASE [2]: 10.33 u/L | SODIUM [2]: 144.23 MEQ/L | TOTAL BILIRUBIN [2]: 0.1 mg/dL | TOTAL PROTEIN [2]: 5.93 G/DL | URIC ACID [2]: 0.87 mg/dL | ABSOLUTE BASOPHIL [3]: 0 CELLS/uL | ABSOLUTE EOSINOPHIL [3]: 49.33 CELLS/uL | ABSOLUTE LYMPHOCYTE [3]: 5081.33 CELLS/uL | ABSOLUTE MONOCYTE [3]: 14 CELLS/uL | ABSOLUTE SEGMENTED NEUTROPHIL [3]: 188.67 CELLS/uL | BASOPHIL [3]: 0% | EOSINOPHIL [3]: 1% | ERYTHROCYTE COUNT [3]: 5.28 x10E6/uL | HEMATOCRIT [3]: 34.1% | HEMOGLOBIN [3]: 13.37 G/DL | LEUKOCYTE COUNT [3]: 5.33 x10E3/uL | LYMPHOCYTE [3]: 95% | MEAN CORPUSCULAR HEMOGLOBIN [3]: 25.3 pg | MEAN CORPUSCULAR HEMOGLOBIN CONCENTRATION [3]: 39.17 G/DL | MEAN CORPUSCULAR VOLUME [3]: 64.67 fL | MONOCYTE [3]: 0.33% | NEUTROPHIL [3]: 3.67% | NUCLEATED RED BLOOD CELLS [3]: 0 /100WBC | ALANINE AMINOTRANSFERASE [3]: 34.67 u/L | ALKALINE PHOSPHATASE [3]: 365.33 u/L | ASPARTATE AMINOTRANSFERASE [3]: 74.67 u/L | BLOOD UREA NITROGEN [3]: 14 mg/dL | CARBON DIOXIDE [3]: 26 mmol/L | CHOLESTEROL [3]: 68.67 mg/dL | CREATINE PHOSPHOKINASE [3]: 222 u/L | CREATININE [3]: 0.14 mg/dL | GLUCOSE [3]: 156 mg/dL | LACTATE DEHYDROGENASE [3]: 60 u/L | LIPASE [3]: 9 u/L | SODIUM [3]: 145.47 MEQ/L | TOTAL BILIRUBIN [3]: 0.1 mg/dL | TOTAL PROTEIN [3]: 5.63 G/DL | URIC ACID [3]: 0.23 mg/dL
